Results: US5948635A, “Totally Synthetic Affinity Reagents” (University of North Carolina at Chapel Hill, priority 1995, dated 1999)

Tests used:
calmodulin = calmodulin (Homo sapiens, UniProt P0DP23); assay: Competition with SEQ ID NO 176 peptide binding to calmodulin; settings: FIG. 20, FIG. 23
From the text: To examine where the SEQ ID NO 176 peptide bound the CaM molecule, we attempted to block binding with other peptides that have been previously shown to bind to the central, linker region of CaM (See Persechini and Kretsinger, 1988, J. Cardiovasc. Pharmacol 12:S1-12; Ikura et al., 1992, Cell Calcium 13:391-400; Chapman et al., 1992, Biochemistry 31:12819-25; Meador et al., 1992, Science 257: 1251-1255). It is this region of CaM that binds various proteins to regulate their activity in a Ca^2+ -dependent manner.
If the site responsible for binding of the CaM specific TSARs to CaM were only a five or six residue peptide, then one would have expected to isolate about 10-20 CaM binding TSARs from the TSAR-12 library. However, since only one particular CaM binding TSAR was repeatedly isolated, it appears that the site of interaction between the CaM specific TSAR and CaM is complex, i.e., the site requires more than simply 5 or 6 residues. To illustrate regions of the SEQ ID NO 176 that are involved in binding to CaM, the ability of 4 modified peptides to compete with SEQ ID NO 176 binding for calmodulin were examined. The modified peptides were (a) the N-terminal 13 residues […] SEQ ID NO 185; (b) the C-terminal 13 residues […] SEQ ID NO 186; (c) the SEQ ID NO 176 peptide where, at position 4, W was changed to A--[…] SEQ ID NO. 184; and (d) a peptide having the reverse sequence […] SEQ ID NO. […]

parvalbumin = assay: CaM-12.1 phage binding to wells coated with parvalbumin; settings: ELISA plate wells
Procedure: (§1) The binding properties of the CaM-12.1 TSAR were further examined in several ways. First, the ability of CaM-12.1 phage to bind other calcium-binding proteins was tested. […] Second, the ability of natural calmodulin binding peptides and proteins to compete for binding of the CaM-12.1 phage with CaM was tested. […] Third, the ability of a synthetic non-peptide CaM-antagonist, W7, (#681629; Calbiochem, San Diego, Calif.), was tested for its ability to compete for binding of CaM-12.1 to CaM. […] In summary: (1) CaM-12.1 binds CaM specifically, and not because it is a high-affinity Ca^2 +-binding protein; (2) CaM-12.1 binds CaM at a site partially overlapping or influenced, by the binding sites of CaM-dependentprotein kinase peptide, melittin and W7.

calcineurin = assay: CaM-12.1 phage binding to calcineurin
Procedure: as §1

[1] = test system: vitamin D calcium-binding protein; assay: CaM-12.1 phage binding to wells coated with vitamin D calcium-binding protein; settings: ELISA plate wells
Procedure: as §1

Substance	competition with binding of peptide SEQ ID NO 176 to CaM (calmodulin)	binding to parvalbumin (parvalbumin)	binding to calcineurin (calcineurin)	binding to vitamin D calcium-binding protein [1]
GAARAQTRLASWK [SEQ ID NO 186, C-terminal 13 residues]	none of the four peptides were able to compete			
STVPRAIEDSLRGGAARAQTRLASWK [SEQ ID NO. 184]	none of the four peptides were able to compete			
VPRWIEDSLRGGAARAQTRLASA [CaM-12.1]		failed to bind	did not bind	failed to bind
